The experiment in a line: Inhibition of melanogenesis in theophylline-stimulated mouse B16-4A5 cells assessed as reduction in melanin level incubated for 72 hrs. The experiment is classed as functional, cell-based. The settings on record: B16-4A5, 72 h.

What is called IC50 is the concentration that inhibits the measured activity by half. As to `OC[C@H]1O[C@H](Oc2ccc(O)cc2)[C@H](O)[C@@H](O)[C@@H]1O`, the IC50 is 611 µM.

Take `C=CC(C)(C)c1[nH]c2c(CC=C(C)C)cc(CC=C(C)C)cc2c1C[C@@H]1NC(=O)[C@H](C)NC1=O` [ECHINULIN]: the IC50 was 68 µM.

(Values after ChEMBL document CHEMBL3856265, “Conditional changes enhanced production of bioactive metabolites of marine derived fungus Eurotium rubrum” (Bioorg Med Chem Lett, 2016).)
